“And” between values parts separate entries of the source, which are not always exact repeats. Equal entries are not always repeated. Toxic doses and inconclusive results are not listed.
System: L1210 leukemia ip in BDF1 mice, survival T/C
Assay: NCI In Vivo Anticancer Drug Screen. Data for tumor model L1210 Leukemia (intraperitoneal) in B6D2F1 (BDF1) mice
Conditions: endpoint: mean survival time, higher = longer survival
In short: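 Transplantable tumor model; survival measured in treated vs vehicle control mice. Value = treated/control.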

[1] = dose: 100.0 mg/kg/injection, schedule: Q04DX003 (ip), vehicle: saline with Tween-80
[2] = dose: 200.0 mg/kg/injection, schedule: Q04DX003 (ip), vehicle: saline with Tween-80
[3] = dose: 400.0 mg/kg/injection, schedule: Q04DX003 (ip), vehicle: saline with Tween-80
[4] = dose: 100.0 mg/kg/injection, schedule: Q01DX001 (ip), vehicle: carboxymethylcellulose (CMC)
[5] = dose: 200.0 mg/kg/injection, schedule: Q01DX001 (ip), vehicle: carboxymethylcellulose (CMC)
[6] = dose: 100.0 mg/kg/injection, schedule: Q01DX001 (ip), vehicle: Klucel (hydroxypropylcellulose) (HPC)
[7] = dose: 100.0 mg/kg/injection, schedule: Q04DX003 (ip), vehicle: Klucel (hydroxypropylcellulose) (HPC)
[8] = dose: 200.0 mg/kg/injection, schedule: Q01DX001 (ip), vehicle: Klucel (hydroxypropylcellulose) (HPC)
[9] = dose: 200.0 mg/kg/injection, schedule: Q04DX003 (ip), vehicle: Klucel (hydroxypropylcellulose) (HPC)
[10] = dose: 400.0 mg/kg/injection, schedule: Q01DX001 (ip), vehicle: Klucel (hydroxypropylcellulose) (HPC)
[11] = dose: 400.0 mg/kg/injection, schedule: Q04DX003 (ip), vehicle: Klucel (hydroxypropylcellulose) (HPC)
[12] = dose: 100.0 mg/kg/injection, schedule: Q04DX002 (ip), vehicle: Klucel (hydroxypropylcellulose) (HPC)
[13] = dose: 200.0 mg/kg/injection, schedule: Q04DX002 (ip), vehicle: Klucel (hydroxypropylcellulose) (HPC)
[14] = dose: 400.0 mg/kg/injection, schedule: Q04DX002 (ip), vehicle: Klucel (hydroxypropylcellulose) (HPC)
[15] = dose: 400.0 mg/kg/injection, schedule: Q01DX001 (ip), vehicle: carboxymethylcellulose (CMC)
[16] = dose: 100.0 mg/kg/injection, schedule: Q01DX009 (ip), vehicle: Klucel (hydroxypropylcellulose) (HPC)
[17] = dose: 200.0 mg/kg/injection, schedule: Q01DX009 (ip), vehicle: Klucel (hydroxypropylcellulose) (HPC)
[18] = dose: 400.0 mg/kg/injection, schedule: Q01DX009 (ip), vehicle: Klucel (hydroxypropylcellulose) (HPC)

CCCC[S][Pb]([CH2]C)([CH2]C)[CH2]C
T/C (dose: 1.56 mg/kg/injection, schedule: Q01DX009 (sc), vehicle: olive oil, sesame oil, peanut oil): 103 % of control
T/C (dose: 3.12 mg/kg/injection, schedule: Q01DX009 (sc), vehicle: olive oil, sesame oil, peanut oil): 99 % of control
T/C (dose: 6.25 mg/kg/injection, schedule: Q01DX009 (sc), vehicle: olive oil, sesame oil, peanut oil): 96 % of control and 100 % of control
T/C (dose: 12.5 mg/kg/injection, schedule: Q04DX002 (ip), vehicle: saline with Tween-80): 111 % of control
T/C (dose: 25.0 mg/kg/injection, schedule: Q04DX002 (ip), vehicle: saline with Tween-80): 96 % of control

CCCOCC(O)C[As](=O)(O)c1cccc(Cl)c1 (centres undefined)
T/C (dose: 6.25 mg/kg/injection, schedule: Q01DX001 (ip), vehicle: saline with Tween-80): 104 % of control
T/C (dose: 12.5 mg/kg/injection, schedule: Q01DX001 (ip), vehicle: saline with Tween-80): 102 % of control
T/C (dose: 25.0 mg/kg/injection, schedule: Q01DX001 (ip), vehicle: saline with Tween-80): 100 % of control

CCOC(=O)c1ccccc1N(O)C(=O)NC12CC3CC(CC(C3)C1)C2
T/C [1]: 94 % of control
T/C [2]: 94 % of control
T/C [3]: 94 % of control

Nc1c(Oc2cccc(C[N+]3(CCOS(=O)(=O)O)CC3)c2)cc(O)c2c1C(=O)c1ccccc1C2=O
T/C [4]: 96 % of control
T/C [5]: 93 % of control

CCN(C(=S)c1ccc(Cl)cc1)c1cccc(C)c1
T/C [6]: 103 % of control
T/C [7]: 94 % of control
T/C [8]: 99 % of control
T/C [9]: 103 % of control
T/C [10]: 94 % of control
T/C [11]: 100 % of control

CN(N)P(=O)(Nc1ccccc1)Nc1ccccc1
T/C (dose: 50.0 mg/kg/injection, schedule: Q04DX003 (ip), vehicle: Klucel (hydroxypropylcellulose) (HPC)): 98 % of control
T/C (dose: 75.0 mg/kg/injection, schedule: Q01DX009 (ip), vehicle: Klucel (hydroxypropylcellulose) (HPC)): 102 % of control
T/C [7]: 91 % of control
T/C (dose: 150.0 mg/kg/injection, schedule: Q01DX009 (ip), vehicle: Klucel (hydroxypropylcellulose) (HPC)): 115 % of control
T/C [9]: 96 % of control
T/C (dose: 300.0 mg/kg/injection, schedule: Q01DX009 (ip), vehicle: Klucel (hydroxypropylcellulose) (HPC)): 100 % of control

Cc1c(CC#N)cc(C)c2c3c([nH]c12)-c1ccccc1CC3
T/C (dose: 50.0 mg/kg/injection, schedule: Q04DX002 (ip), vehicle: Klucel (hydroxypropylcellulose) (HPC)): 102 % of control
T/C [12]: 106 % of control
T/C [13]: 102 % of control
T/C [14]: 104 % of control

O=c1[nH]ncc2ccc([N+](=O)[O-])cc12
T/C (dose: 75.0 mg/kg/injection, schedule: Q01DX001 (ip), vehicle: other): 103 % of control
T/C (dose: 150.0 mg/kg/injection, schedule: Q01DX001 (ip), vehicle: other): 101 % of control

COc1cccc(CCNC(=O)CCC#N)c1
T/C (dose: 75.0 mg/kg/injection, schedule: Q01DX009 (ip), vehicle: saline): 112 % of control
T/C [7]: 97 % of control
T/C (dose: 150.0 mg/kg/injection, schedule: Q01DX009 (ip), vehicle: saline): 93 % of control
T/C [9]: 87 % of control
T/C (dose: 300.0 mg/kg/injection, schedule: Q01DX009 (ip), vehicle: saline): 100 % of control
T/C [11]: 90 % of control

COc1ccc(OC)c(CC(C)O)c1 (centres undefined)
T/C [4]: 101 % of control
T/C [5]: 101 % of control
T/C [15]: 98 % of control

CCOc1cc(-c2nc3ccccc3s2)ccc1O
T/C [1]: 96 % of control
T/C [2]: 101 % of control
T/C [3]: 96 % of control

O=C(Nc1ccccc1F)OCCOc1ccccc1
T/C [6]: 97 % of control
T/C [16]: 95 % of control and 97 % of control
T/C [12]: 98 % of control and 115 % of control
T/C [8]: 97 % of control
T/C [17]: 95 % of control and 102 % of control
T/C [13]: 106 % of control and 115 % of control
T/C [10]: 94 % of control
T/C [18]: 95 % of control and 103 % of control
T/C [14]: 100 % of control and 103 % of control

O=[N+]([O-])c1ccc(O)c(C2N(Cc3ccc(N(CCCl)CCCl)cc3)CCCN2Cc2ccc(N(CCCl)CCCl)cc2)c1
T/C (dose: 50.0 mg/kg/injection, schedule: Q01DX001 (ip), vehicle: carboxymethylcellulose (CMC)): 109 % of control
T/C [6]: 93 % of control
T/C [4]: 109 % of control
T/C [16]: 93 % of control
T/C [7]: 103 % of control
T/C [8]: 95 % of control
T/C [5]: 118 % of control
T/C [17]: 98 % of control
T/C [9]: 97 % of control
T/C [10]: 95 % of control
T/C [18]: 94 % of control
T/C [11]: 95 % of control

CCOC(=O)CNC(=O)Oc1ccc(NC(C)=O)cc1
T/C (dose: 100.0 mg/kg/injection, schedule: Q01DX009 (ip), vehicle: saline with Tween-80): 100 % of control
T/C (dose: 200.0 mg/kg/injection, schedule: Q01DX009 (ip), vehicle: saline with Tween-80): 95 % of control
T/C (dose: 400.0 mg/kg/injection, schedule: Q01DX009 (ip), vehicle: saline with Tween-80): 108 % of control

COc1ccc2nc3ccccc3c(N)c2c1
T/C (dose: 5.0 mg/kg/injection, schedule: Q01DX001 (ip), vehicle: saline): 100 % of control
T/C (dose: 10.0 mg/kg/injection, schedule: Q01DX001 (ip), vehicle: saline): 100 % of control
T/C (dose: 20.0 mg/kg/injection, schedule: Q01DX001 (ip), vehicle: saline): 97 % of control
T/C (dose: 40.0 mg/kg/injection, schedule: Q01DX001 (ip), vehicle: saline): 90 % of control

CC[N+](CC)(CC)CCCCCC[N+](CC)(CC)CC
T/C (dose: 3.15 mg/kg/injection, schedule: Q01DX009 (ip), vehicle: water): 113 % of control
T/C (dose: 6.25 mg/kg/injection, schedule: Q01DX009 (ip), vehicle: water): 103 % of control
T/C (dose: 6.25 mg/kg/injection, schedule: Q04DX003 (ip), vehicle: saline): 103 % of control
T/C (dose: 12.5 mg/kg/injection, schedule: Q01DX009 (ip), vehicle: water): 100 % of control and 103 % of control
T/C (dose: 12.5 mg/kg/injection, schedule: Q04DX003 (ip), vehicle: saline): 104 % of control

CCCCC(=O)OCC(=O)[C@]1(O)Cc2c(O)c3c(c(O)c2[C@@H](OC2CC(NC(=O)C(F)(F)F)C(O)C(C)O2)C1)C(=O)c1c(OC)cccc1C3=O (some centres undefined)
T/C (dose: 7.5 mg/kg/injection, schedule: Q01DX004 (ip), vehicle: saline with Tween-80): 108 % of control and 112 % of control
T/C (dose: 10.0 mg/kg/injection, schedule: Q01DX004 (ip), vehicle: saline with Tween-80): 117 % of control and 119 % of control and 120 % of control
T/C (dose: 30.0 mg/kg/injection, schedule: Q01DX004 (ip), vehicle: saline with Tween-80): 166 % of control
T/C (dose: 40.0 mg/kg/injection, schedule: Q01DX004 (ip), vehicle: other): 164 % of control and 375 % of control
T/C (dose: 50.0 mg/kg/injection, schedule: Q01DX004 (ip), vehicle: other): 372 % of control and 470 % of control
T/C (dose: 60.0 mg/kg/injection, schedule: Q01DX004 (ip), vehicle: other): 177 % of control and 441 % of control

O=C1c2cc(Br)ccc2-c2cc(Br)c([N+](=O)[O-])c(Br)c21
T/C [4]: 106 % of control
T/C [5]: 103 % of control
T/C [15]: 97 % of control

COc1ccccc1NC(=O)c1ccc(Cl)cc1Cl
T/C [16]: 98 % of control
T/C [7]: 100 % of control
T/C [17]: 93 % of control
T/C [9]: 96 % of control
T/C [18]: 93 % of control
T/C [11]: 97 % of control

CC(CCOS(C)(=O)=O)OS(C)(=O)=O (centres undefined)
T/C [1]: 112 % of control
T/C [2]: 107 % of control
T/C [3]: 88 % of control

COc1cc(Oc2c(OC)cc(NC(C)=O)cc2OC)cc(OC)c1OC
T/C [1]: 94 % of control
T/C [2]: 97 % of control
T/C [3]: 95 % of control

N#CN1CCCC1
T/C (dose: 44.0 mg/kg/injection, schedule: Q01DX Z (ip), vehicle: saline): 98 % of control
T/C (dose: 66.0 mg/kg/injection, schedule: Q01DX Z (ip), vehicle: saline): 102 % of control

From PubChem BioAssay AID248 (DTP/NCI, 2004)
